Entries after “also recorded” stand apart in the source; their conditions may differ.
Tests used:
[1] = Membrane permeability, PermeaPad plate (cell-free transport model); type: in vitro ADME
Description: Membrane permeability was assessed using PermeaPad® Plate according to the manufacturing procedure (innoME GmbH, Espelkamp, Germany). Briefly, 200 µl water was added into acceptor plate. 200 µl of 100 - 500 µM test compound in water was added directly to the well membranes of the donor plate. The donor plate contains a biomimetic membrane for simulating passive mass transfer through different barriers in the body. Then the donor plate was placed into the acceptor plate wells and incubated at room temperature for 24 hours in dark. To determine peak absorbance of test compounds, absorbance spectra of acceptor solutions and initial solutions for each test compound were read out. The Permeability Rate (Pe) was calculated using the formula: Pe = C × −ln(1−(ODA)/(ODE)) cm/s, [formula]
where ODA is the absorbance of acceptor solution, ODE is the absorbance of the standard solution; if the compound is able to permeabilize the membrane and fully reach equilibrium, 250 µM will be the final concentration of solution in the donor and acceptor wells. The coefficient C was calculated using the formula: C = (VD × VA)/((VD+VA) × Area × time), [formula] where VA - acceptor volume (cm^3), VD - donor volume (cm^3), membrane area 0.24 cm^2, time is 86,400 s.
(§1) The membrane permeability of the derivatives was determined using cell-free transport models (PermeaPad®, innoME GmbH), and permeability rates (Pe), which are a measure of how fast a compound can cross a membrane, were established (Table 1).

SERCA2a = target: T1, SERCA2a (Mus musculus, UniProt O55143); experiment: Caffeine-induced Ca2+ release assay on HL-1 cells; type: cell-based; parameters: key to SERCA2a HL-1 effect class: +++: a strong effect, comparable to or greater than that of a known compounds at a given concentration (25 µM in RyR2 R-CEPIA1er assay, 10 µM in caffeine assay and on microsomal membrane vesicles); ++: moderate effect; +: observable effect; -: no effect
T1 construct: host or cells: HL-1 cardiac cells
Description: HL-1 cardiac cells (SCC065, Merck KGaA, Darmstadt, Germany) were cultivated in Claycomb's Medium (51800C, Merck KGaA, Darmstadt, Germany), supplemented with Glutamax, 10% fetal bovine serum, 0.9% Penicillin/Streptomycin and 0.1 mM Noradrenaline (Merck KGaA, Darmstadt, Germany) on fibronectin/gelatin (Merck KGaA, Darmstadt, Germany) coated culture bottles or plates two days before plating.
HL-1 cardiac cells (50000 per well) were cultivated for 24 h in black-walled, clear-bottom 96-well micro-plates (Corning, Amsterdam, The Netherlands) covered with fibronectin/gelatin (Merck KGaA, Darmstadt, Germany) in a humidified incubator at 37 °C and 5% CO2.
Changes in Ca^2+ concentration were measured on a multiwell plate reader TECAN Spark 20M using FLIPR 6 Calcium Assay Kit from Molecular Devices (Molecular Devices LLC, München, Germany) at 37 °C. The 1000 × stock solutions of the test compounds were prepared in DMSO. 100 µl solution of test compound in Tyrode's solution containing FLIPR Calcium 6 dye was incubated for 2 hours at 37°C and 5% COz in a humidified incubator. The time courses were recorded in each well. Fluorescence was evoked at 485 nm excitation wavelength and read out in a bottom-read mode at 525 nm. Data were recorded every 2 s, exposure - 20 flashes, excitation bandwidth - 10 nm, emission bandwidth - 15 nm. To initiate Ca^2+ influx, 25 µl of 50 mM caffeine solution in Tyrode's solution containing 2 mM CaCl2 was injected in each well (speed 100 µl/s) at 10 s time point, resulting in 10 mM final concentration in the well. The differences between the caffeine induced peak minus basal fluorescence, ΔFCaff, were taken for the analysis. The Tyrode's solution + 0.1 v/v% DMSO was used as a control. The dose response curves were calculated using the software package GraphPad Prism version 8.3.1. All data are presented as mean ± S.D. from 8 independent experiments. Y=Bottom + (Top-Bottom)/(1+10^((LogEC50-X)*HillSlope)) was used where HillSlope describes the steepness of the curve, Top and Bottom are plateaus in the units of the Y axis.
The SERCA2a activity of the compounds was confirmed in two orthogonal biochemical assays: caffeine-induced Ca^2+ release assay and nicotinamide adenine dinucleotide (NADH) assay on microsomal membrane vesicles from mouse heart ventricles (mouse SER) and HEK-293T cells (HEK-293 ER). The effect of caffeine-induced Ca^2+ release in HL-1 cells, immortalized mouse cardiomyocytes, treated with the cytosolic Ca^2+ indicator FLIPR Calcium 6 (Molecular Devices) was investigated.
When caffeine binds to the RyR channel, it interacts with specific amino acids of the protein, and this interaction causes conformational changes in the protein's structure [A. des Georges, O. B. Clarke, R. Zalk, Q. Yuan, K. J. Condon, R. A. Grassucci, W. A. Hendrickson, A. R. Marks, J. Frank, Structural Basis for Gating and Activation of RyR1. Cell 2016, 167, 145 - 157.e17]. This opens the RyR2 channel pore, enabling the mass release of calcium ions from the SER Ca^2+ store.

HL-1 cardiac cells = experiment: CytoTox-Glo cytotoxicity assay (cell viability); type: cell-based; settings: CytoTox-Glo assay in 100 µM solutions after 24 h incubation
Description: Cell viability was assessed using CytoTox-Glo™ Cytotoxicity Assay according to the manufacturing procedure (Promega GmbH). Briefly, HL-1 cardiac cells were cultivated for 24 h in black-walled, clear-bottom 96-well micro-plates (Corning) covered with fibronectin in DMEM, containing different concentrations of the tested compound (10,000 cells/well). Luminescence of a luminogenic peptide substrate was measured before and after addition of the lysis reagent (digitonin). The viable cell contribution was determined by a subtractive method. 0.1% DMSO treated cell were taken as a control.
as §1

T1 sequence (O55143 1-998 isoform O55143-2): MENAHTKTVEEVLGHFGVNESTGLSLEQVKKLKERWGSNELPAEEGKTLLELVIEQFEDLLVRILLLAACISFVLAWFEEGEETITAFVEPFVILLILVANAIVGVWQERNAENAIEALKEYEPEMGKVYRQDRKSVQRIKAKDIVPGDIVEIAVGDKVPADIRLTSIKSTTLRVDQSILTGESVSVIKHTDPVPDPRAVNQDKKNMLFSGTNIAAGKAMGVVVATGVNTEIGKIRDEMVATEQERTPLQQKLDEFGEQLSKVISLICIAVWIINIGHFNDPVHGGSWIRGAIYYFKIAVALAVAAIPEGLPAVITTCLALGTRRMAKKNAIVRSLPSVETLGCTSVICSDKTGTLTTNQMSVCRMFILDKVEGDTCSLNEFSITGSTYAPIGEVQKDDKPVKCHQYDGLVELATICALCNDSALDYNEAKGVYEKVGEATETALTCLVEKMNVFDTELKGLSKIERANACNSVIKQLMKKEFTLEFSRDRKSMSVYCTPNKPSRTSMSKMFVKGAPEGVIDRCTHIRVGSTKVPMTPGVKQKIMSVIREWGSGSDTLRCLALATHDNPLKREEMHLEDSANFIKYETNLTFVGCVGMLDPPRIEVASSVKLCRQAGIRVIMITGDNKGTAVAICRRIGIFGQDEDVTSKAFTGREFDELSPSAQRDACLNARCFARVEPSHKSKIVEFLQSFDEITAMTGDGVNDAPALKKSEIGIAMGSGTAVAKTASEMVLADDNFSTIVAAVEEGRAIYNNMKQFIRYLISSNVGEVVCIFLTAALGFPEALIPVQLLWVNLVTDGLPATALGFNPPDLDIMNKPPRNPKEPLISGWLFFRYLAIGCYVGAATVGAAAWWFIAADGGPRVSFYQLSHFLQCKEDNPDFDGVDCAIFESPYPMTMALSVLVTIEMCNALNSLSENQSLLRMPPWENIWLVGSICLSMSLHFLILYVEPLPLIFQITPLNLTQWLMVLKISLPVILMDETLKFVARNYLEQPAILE

Pe rating in words (low / medium / high; poor) [1]: medium
Pe ([1]; permeability rate, room temperature, 24 hours): 1.2 10^-6 cm/s
SERCA2a HL-1 effect class (SERCA2a; 10 µM in caffeine assay): -
SMILES: COc1ccc2c(c1)CN(C)CCS2 [Compound S107, reference compound]
effect in caffeine-induced Ca^2+ release assay, in words (SERCA2a; HL-1 cells incubated 2 h with compound, 10 mM caffeine): no concentration dependent effect; also recorded: didn't show any effects on SR Ca^2+ content
Viability (HL-1 cardiac cells): 98%

Source: EP4548971A1, “1,4-BENZOTHIAZEPINES AND RELATED COMPOUNDS WITH CYCLOPROPANOL GROUPS AS MULTI-TARGETED DRUGS” (Georg-August-Universität Göttingen Stiftung Öffentlichen …, priority 2023, dated 2025)
